This note sets out measurements from patent US12084472B2 (Ardelyx, Inc., priority 2015, dated 2024).

The assay addresses T1, human TGR5 (Homo sapiens, UniProt Q8TDU6).
T1 construct: expressed in transfected cells; host or cells: HEK293
T1 sequence (Q8TDU6 1-330): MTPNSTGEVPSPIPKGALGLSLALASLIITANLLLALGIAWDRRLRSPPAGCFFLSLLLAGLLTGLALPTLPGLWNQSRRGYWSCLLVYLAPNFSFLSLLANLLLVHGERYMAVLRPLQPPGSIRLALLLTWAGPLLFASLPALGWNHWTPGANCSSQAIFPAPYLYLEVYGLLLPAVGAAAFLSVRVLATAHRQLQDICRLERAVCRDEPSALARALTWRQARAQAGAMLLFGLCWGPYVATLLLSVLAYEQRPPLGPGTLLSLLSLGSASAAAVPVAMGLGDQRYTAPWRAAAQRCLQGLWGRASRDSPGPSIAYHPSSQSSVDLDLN
Nature of the assay: Cell-based TGR5 assay (cAMP generation, HTRF). The settings on record: HEK293 cells stably transfected with human TGR5; cAMP by HTRF; 30 minutes at 37° C.; read-out: pEC50 Human TGR5 (converted). On the procedure: A primary cell-based assay utilized HEK293 cells stably transfected with a gene encoding human TGR5. Cells were treated with candidate TGR5 activators and assessed for increased intercellular levels of cAMP.
TGR5-mediated cAMP generation was measured using a homogeneous time resolved fluorescence (HTRF) detection method (Cisbio). Test compounds were dissolved in DMSO to a final concentration of 10 mM. Serial 3-fold dilutions of the stock solution were made in DMSO, and these solutions were diluted 100-fold into Hanks Balanced Salt Solution supplemented with 10 mM HEPES pH 7.4, 0.003% Tween 20 and 0.5 mM isobutyl methylxanthine. Five microliters of diluted test compounds were added to wells of a black 384 well plate.
Cells grown overnight at 37° C./5% CO2 were harvested and resuspended in Hanks Balanced Salt Solution containing 10 mM HEPES to a concentration of […]. Five microliters (2500 cells) were dispensed into each well of the 384 well plate containing compound dilutions and incubated at 37° C. for 30 minutes. Each compound was tested in duplicate at 12 concentrations ranging from 0.05 nM to 10 μM.
Following incubation with test compounds, cAMP was detected through the successive addition of 5 μL each of cAMP labeled with the modified allophyocyanin dye d2 (cAMP-d2) and cryptate-labeled anti-cAMP in lysis buffer, and reading HTRF per the manufacturer's instructions.
A standard curve was used to convert the raw HTRF data into [cAMP]. The concentration of cAMP was plotted against log [test compound] and the resulting curves were fit to a 3-parameter logistical equation using GraphPad Prism to determine pEC50 (the negative log of the EC50) and the magnitude of the response.
Background: Time-resolved FRET reads energy transfer from a long-lived donor to a nearby acceptor.
Take `CN(C[C@H](O)[C@@H](O)[C@H](O)[C@H](O)CO)C(=O)NCCCCCc1cc(Cl)c(CNC2(c3cnccc3-c3ccccc3OC3CC3)CC2)cc1Cl` (stereo in doubt) [Compound I-163, 1-(5-{2,5-dichloro-4-[({1-[4-(2-cyclopropoxyphenyl)pyridin-3-yl]cyclopropyl}amino)methyl]phenyl}pentyl)-3-methyl-3-[(2S,3R,4R,5R)-2,3,4,5,6-pentahydroxyhexyl]urea]: the EC50 was below 100 nM.

Take `CN(CC(=O)O)C[C@H](NC(=O)CCCCc1cc(Cl)c(COC2(c3cnccc3-c3ccccc3OC3CC3)CC2)cc1Cl)[C@@H](O)[C@H](O)[C@H](O)CO` (stereo in doubt) [Compound I-164, 2-{[(2S,3R,4S,5R)-2-{5-[2,5-dichloro-4-({1-[4-(2-cyclopropoxyphenyl)pyridin-3-yl]cyclopropoxy}methyl)phenyl]pentanamido}-3,4,5,6-tetrahydroxyhexyl](methyl)amino}acetic acid]: the EC50 was below 100 nM.

`O=C(CCN(CCC(=O)NC[C@H](O)[C@@H](O)[C@H](O)[C@H](O)CO)C(=O)CCCCc1cc(Cl)c(COC2(c3cnccc3-c3ccccc3OC3CC3)CC2)cc1Cl)NC[C@H](O)[C@@H](O)[C@H](O)[C@H](O)CO` (stereo in doubt) [Compound I-168, 5-[2,5-dichloro-4-({1-[4-(2-cyclopropoxyphenyl)pyridin-3-yl]cyclopropoxy}methyl)phenyl]-N,N-bis(2-{[(2S,3R,4R,5R)-2,3,4,5,6-pentahydroxyhexyl]carbamoyl}ethyl)pentanamide]: the EC50 is below 100 nM.

As to `O=C(CCN(CCC(=O)NC[C@H](O)[C@@H](O)[C@H](O)[C@H](O)CO)C(=O)CCCCc1cc(Cl)c(CNC2(c3cnccc3-c3ccccc3OC3CC3)CC2)cc1Cl)NC[C@H](O)[C@@H](O)[C@H](O)[C@H](O)CO` (stereo in doubt) [Compound I-170, 5-{2,5-dichloro-4-[({1-[4-(2-cyclopropoxyphenyl)pyridin-3-yl]cyclopropyl}amino)methyl]phenyl}-N,N-bis(2-{[(2S,3R,4R,5R)-2,3,4,5,6-pentahydroxyhexyl]carbamoyl}ethyl) pentanamide], the EC50 is 1260 to 10000 nM.

`Cc1cc(COC2(c3cnccc3-c3ccccc3OC3CC3)CC2)c(Cl)cc1CCCCNC(=O)[C@@H](O)[C@@H](O)[C@H](O)[C@@H](O)CO` (stereo in doubt) [Compound I-172, (2S,3S,4R,5S)-N-{4-[5-chloro-4-({1-[4-(2-cyclopropoxyphenyl)pyridin-3-yl]cyclopropoxy)methyl)-2-methylphenyl]butyl}-2,3,4,5,6-pentahydroxyhexanamide]: the EC50 was below 100 nM.

As for `O=C(O)[C@@H](O)[C@@H](O)[C@H](O)[C@@H](O)CNC1CCN(C(=O)CCCCc2cc(Cl)c(COC3(c4cnccc4-c4ccccc4OC4CC4)CC3)cc2Cl)CC1` (stereo in doubt) [Compound I-173, (2S,3S,4R,5S)-6-[(1-{5-[2,5-dichloro-4-({1-[4-(2-cyclopropoxyphenyl)pyridin-3-yl]cyclopropoxy}methyl)phenyl]pentanoyl}piperidin-4-yl)amino]-2,3,4,5-tetrahydroxyhexanoic acid], the EC50 is below 100 nM.

Consider `Cc1cc(COC2(c3cnccc3-c3ccccc3OC3CC3)CC2)c(Cl)cc1CCCCNC(=O)[C@@H](O)[C@@H](O)[C@H](O)[C@@H](O)CN1CCOCC1` (stereo in doubt) [Compound I-176, (2S,3S,4R,5S)-N-{4-[5-chloro-4-({1-[4-(2-cyclopropoxyphenyl)pyridin-3-yl]cyclopropoxy}methyl)-2-methylphenyl]butyl}-2,3,4,5-tetrahydroxy-6-(morpholin-4-yl)hexanamide], for which the EC50 is below 100 nM.

`O=C(NCCCCc1cc(Cl)c(COC2(c3cnccc3-c3ccccc3OC3CC3)CC2)cc1Cl)[C@@H](O)[C@@H](O)[C@H](O)[C@@H](O)CN1CCOCC1` (stereo in doubt) [Compound I-179, (2S,3S,4R,5S)-N-{4-[2,5-dichloro-4-({1-[4-(2-cyclopropoxyphenyl)pyridin-3-yl]cyclopropoxy}methyl)phenyl]butyl}-2,3,4,5-tetrahydroxy-6-(morpholin-4-yl)hexanamide]: the EC50 is below 100 nM.

Take `N[C@@H]1[C@@H](O)[C@@H](O[C@@H]2[C@@H](O)[C@H](O[C@H]3O[C@H](CNC(=O)CCCCc4cc(Cl)c(COC5(c6cnccc6-c6ccccc6OC6CC6)CC5)cc4Cl)[C@@H](O)[C@H](O)[C@H]3O)[C@@H](N)C[C@H]2N)O[C@H](CO)[C@H]1O` (stereo in doubt) [Compound I-181, N-{[(2R,3S,4S,5R,6R)-6-{[(1R,2R,3S,4R,6S)-4,6-diamino-3-{[(2S,3R,4S,5S,6R)-4-amino-3,5-dihydroxy-6-(hydroxymethyl)oxan-2-yl]oxy}-2-hydroxycyclohexyl]oxy}-3,4,5-trihydroxyoxan-2-yl]methyl}-5-[2,5-dichloro-4-({1-[4-(2-cyclopropoxyphenyl)pyridin-3-yl]cyclopropoxy}methyl)phenyl]pentanamide]: the EC50 is below 100 nM.

`CN(CCCCc1cc(Cl)c(COC2(c3cnccc3-c3ccccc3OC3CC3)CC2)cc1Cl)C(=O)[C@@H](O)[C@@H](O)[C@H](O)[C@@H](O)CO` (stereo in doubt) [Compound I-184, (2S,3S,4R,5S)-N-{4-[2,5-dichloro-4-({1-[4-(2-cyclopropoxyphenyl)pyridin-3-yl]cyclopropoxy}methyl)phenyl]butyl}-2,3,4,5,6-pentahydroxy-N-methylhexanamide]: the EC50 is below 100 nM.

As to `O=C(NCCCCc1cc(Cl)c(COC2(c3cnccc3-c3ccccc3OC3CC3)CC2)cc1Cl)[C@@H](O)[C@@H](O)[C@H](O)[C@@H](O)CO` (stereo in doubt) [Compound I-185, (2S,3S,4R,5S)-N-{4-[2,5-dichloro-4-({1-[4-(2-cyclopropoxyphenyl)pyridin-3-yl]cyclopropoxy}methyl)phenyl]butyl}-2,3,4,5,6-pentahydroxyhexanamide], the EC50 is below 100 nM.

Consider `O=C(O)COCC(=O)N(CCCCc1cc(Cl)c(COC2(c3cnccc3-c3ccccc3OC3CC3)CC2)cc1Cl)C[C@H](O)[C@@H](O)[C@H](O)[C@H](O)CO` (stereo in doubt) [Compound I-186, 2-[({4-[2,5-dichloro-4-({1-[4-(2-cyclopropoxyphenyl)pyridin-3-yl]cyclopropoxy}methyl)phenyl]butyl}[(2S,3R,4R,5R)-2,3,4,5,6-pentahydroxyhexyl]carbamoyl)methoxy]acetic acid], for which the EC50 is 126 to 1000 nM.

`O=C(O)CCC(=O)N(CCCCc1cc(Cl)c(COC2(c3cnccc3-c3ccccc3OC3CC3)CC2)cc1Cl)C[C@H](O)[C@@H](O)[C@H](O)[C@H](O)CO` (stereo in doubt) [Compound I-187, 3-({4-[2,5-dichloro-4-({1-[4-(2-cyclopropoxyphenyl)pyridin-3-yl]cyclopropoxy}methyl)phenyl]butyl}[(2S,3R,4R,5R)-2,3,4,5,6-pentahydroxyhexyl]carbamoyl)propanoic acid]: the EC50 is below 100 nM.

On to `CN(CCCCc1cc(Cl)c(COC2(c3cnccc3-c3ccccc3OC3CC3)CC2)cc1Cl)C(=O)[C@@H](O)[C@@H](O)[C@H](O)[C@@H](O)CN1CCOCC1` (stereo in doubt) [Compound I-189, (2S,3S,4R,5S)-N-{4-[2,5-dichloro-4-({1-[4-(2-cyclopropoxyphenyl)pyridin-3-yl]cyclopropoxy}methyl)phenyl]butyl}-2,3,4,5-tetrahydroxy-N-methyl-6-(morpholin-4-yl)hexanamide], for which the EC50 is below 100 nM.

`Cc1cc(COC2(c3cnccc3-c3ccccc3OC3COC3)CC2)c(Cl)cc1CCCCNC(=O)NC[C@H](O)[C@@H](O)[C@H](O)[C@H](O)CO` (stereo in doubt) [Compound I-190, 1-(4-{5-chloro-2-methyl-4-[(1-{4-[2-(oxetan-3-yloxy)phenyl]pyridin-3-yl}cyclopropoxy)methyl]phenyl}butyl)-3-[(2S,3R,4R,5R)-2,3,4,5,6-pentahydroxyhexyl]urea]: the EC50 is below 100 nM.

Consider `CN(C[C@H](O)[C@@H](O)[C@H](O)[C@H](O)CO)C(=O)NS(=O)(=O)NCCCCc1cc(Cl)c(COC2(c3cnccc3-c3ccccc3OC3CC3)CC2)cc1Cl` (stereo in doubt) [Compound I-194, 1-({4-[2,5-dichloro-4-({1-[4-(2-cyclopropoxyphenyl)pyridin-3-yl]cyclopropoxy}methyl)phenyl]butyl}sulfamoyl)-3-methyl-3-[(2S,3R,4R,5R)-2,3,4,5,6-pentahydroxyhexyl]urea], for which the EC50 is below 100 nM.
